≈ marks a conversion by molar mass, not a printed value. Where two headings read alike, the source gives them in different places.
Key:
S. aureus ATCC 29213 = assay: MIC broth microdilution (NCCLS); format: cell-based, Staphylococcus aureus; conditions: Staphylococcus aureus, ATCC29213; S. aureus ATCC 29213; read-out: MIC
Protocol: (§1) Minimal Inhibitory Concentration (MIC) Determination. Bacteria (primary strain panel, TABLE 1). Susceptibility tests were performed following the recommendations from the National Committee for Clinical Standards (NCCLS). The MICs were determined by a broth microdilution technique using a final volume of 100 μl of cation-adjusted Mueller Hinton Broth (MHBCA) and a bacterial inoculum of 10^5-10^6 Colony Forming Units (CFU)/ml. The inocula were verified and precisely determined by applying 10-μl drops of 10-fold dilutions onto Triptic Soy Agar plates. The CFU were counted after an incubation of 24 h at 35° C. Any experiment showing an inoculum that was more or less than 10^5-10^6 CFU/ml was rejected. Control antibiotics and test compounds were prepared at a concentration equivalent to 2-fold the highest desired final concentration. Compounds were then diluted directly in the 96-well microtiter plates by serial 2-fold dilutions using a multichannel pipette. Microtiter plates were incubated during 24 h at 35° C. and growth was recorded by using a microtiterplate reader at 650 nm as well as by visual observation. The MIC was defined as the lowest concentration of compound yielding no visible growth. […] Fastidious bacteria. The medium used for Listeria monocytogenes, Neisseria meningitidis, and Campylobacter jejuni was MHBCA containing 2% laked horse blood. The medium used for Haemophilus influenzae and Branhamella (Moraxella) catarrhalis was HTM as recommended by the NCCLS. Cultures of these fastidious bacteria were incubated at 35° C. in a 5% CO2 atmosphere. […] The medium used for Bacteroides fragilis was Wilkins Chalgren broth and growth was allowed under an anaerobic atmosphere at 35° C. for 48 hours.

E. faecium VanA = assay: MIC broth microdilution, antibiotic resistant strain panel; format: cell-based; conditions: Enterococcus faecium
Protocol: as §1
(§2) Finally, compounds were also tested against populations of various clinical strains (antibiotic resistant strain panel, TABLE 1).

M. smegmatis ATCC 19420 = assay: MIC broth microdilution (NCCLS), fastidious bacteria; format: cell-based, Mycobacterium smegmatis; conditions: Mycolicibacterium smegmatis, ATCC19420, read after 48 hours
Protocol: as §1

S. aureus MRSA COL = assay: MIC broth microdilution (NCCLS); format: cell-based, Staphylococcus aureus; conditions: Staphylococcus aureus, MRSA, S. aureus MRSA COL; read-out: MIC
Protocol: as §1, with “hours. […]” for “hours.”

E. faecium ATCC 35667 = assay: MIC broth microdilution (NCCLS); format: cell-based, Enterococcus faecium; conditions: Enterococcus faecium, ATCC35667, E. faecium ATCC 35667; read-out: MIC
Protocol: as §1

E. coli ATCC 25922 = assay: MIC broth microdilution (NCCLS); format: cell-based, Escherichia coli
Protocol: as §1

A. baumannii ATCC 19606 = assay: MIC broth microdilution (NCCLS); format: cell-based, Acinetobacter baumannii; conditions: Acinetobacter baumannii, ATCC19606, read-out: MIC
Protocol: as §1

E. faecalis ATCC 29212 = assay: MIC broth microdilution (NCCLS); format: cell-based, Enterococcus faecalis; conditions: Enterococcus faecalis, ATCC29212; E. faecalis ATCC 29212; read-out: MIC
Protocol: as §1

[1] = tested on: S. saprophyticus ATCC 15305; assay: MIC broth microdilution (NCCLS); format: cell-based, Staphylococcus saprophyticus; conditions: Staphylococcus saprophyticus, ATCC15305; S. saprophyticus ATCC 15305; read-out: MIC
Protocol: as §1

[2] = tested on: L. monocytogenes ATCC 13932; assay: MIC broth microdilution (NCCLS), fastidious bacteria; format: cell-based; conditions: Listeria monocytogenes, ATCC13932, MHBCA with 2% laked horse blood, 5% CO2
Protocol: as §1

[3] = tested on: S. epidermidis ATCC 12228; assay: MIC broth microdilution (NCCLS); format: cell-based, Staphylococcus epidermidis; conditions: Staphylococcus epidermidis, ATCC12228; S. epidermidis ATCC 12228; read-out: MIC
Protocol: as §1

[4] = tested on: Y. enterocolytica ATCC 23715; assay: MIC broth microdilution (NCCLS); format: cell-based, Yersinia enterocolytica; conditions: Yersinia, ATCC23715, read-out: MIC
Protocol: as §1

B. fragilis ATCC 25285 = assay: MIC broth microdilution (NCCLS), anaerobic; format: cell-based; conditions: Bacteroides fragilis, ATCC25285; B. fragilis ATCC 25285; Wilkins Chalgren broth, anaerobic, 48 hours; read-out: MIC
Protocol: as §1

E. coli Ec119c (EIEC) = assay: MIC broth microdilution, E. coli strains; format: cell-based; conditions: Escherichia coli, pathotype EIEC
Protocol: as §1, §2

E. coli Ec117c (EIEC) = assay: MIC broth microdilution, E. coli strains; format: cell-based; conditions: Escherichia coli, pathotype EIEC
Protocol: as §1, §2

[5] = tested on: E. coli d25-ALR-pen14 (O157:H7); assay: MIC broth microdilution, E. coli strains; format: cell-based; conditions: Escherichia coli
Protocol: as §1, §2

E. coli Ec022c (EIEC) = assay: MIC broth microdilution, E. coli strains; format: cell-based; conditions: Escherichia coli, pathotype EIEC
Protocol: as §1, §2

[6] = tested on: E. coli ATCC 35150 (O157:H7); assay: MIC broth microdilution, E. coli strains; format: cell-based; conditions: Escherichia coli, ATCC35150
Protocol: as §1, §2

E. coli Ec027c (EIEC) = assay: MIC broth microdilution, E. coli strains; format: cell-based; conditions: Escherichia coli, pathotype EIEC
Protocol: as §1, §2

E. coli Ec118c (EIEC) = assay: MIC broth microdilution, E. coli strains; format: cell-based; conditions: Escherichia coli, pathotype EIEC
Protocol: as §1, §2

[7] = tested on: E. coli d4-OLR-pen10 (O157:H7); assay: MIC broth microdilution, E. coli strains; format: cell-based; conditions: Escherichia coli
Protocol: as §1, §2

[8] = Escherichia coli, ATCC25922, E. coli ATCC 25922 (Reference), read-out: MIC

CO[C@H]1/C=C/O[C@@]2(C)Oc3c(C)c(O)c4c(O)c(c(/C=N/N5CCN(C)CC5)c(O)c4c3C2=O)NC(=O)/C(C)=C\C=C\[C@H](C)[C@H](O)[C@@H](C)[C@@H](O)[C@@H](C)[C@H](OC(C)=O)[C@@H]1C [Rifampicin] gave an MIC (S. aureus ATCC 29213) of 0.008 to 0.015 µg/mL (≈ 0.00972 to 0.0182 µM), an MIC (E. faecium VanA) of over 128 µg/mL and an MIC (M. smegmatis ATCC 19420) of 8 µg/mL (≈ 9.72 µM). It also gave an MIC (S. aureus MRSA COL) of 0.008 to 0.015 µg/mL (≈ 0.00972 to 0.0182 µM), an MIC (E. faecium ATCC 35667) of 32 µg/mL (≈ 38.9 µM) and an MIC (E. coli ATCC 25922; [8]) of 8 µg/mL (≈ 9.72 µM). The MIC (A. baumannii ATCC 19606) was 4 µg/mL (≈ 4.86 µM), the MIC (E. faecalis ATCC 29212) was 0.5 to 1 µg/mL (≈ 0.608 to 1.22 µM) and the MIC [1] was 0.03 µg/mL (≈ 0.0365 µM). The MIC [2] was 0.06 µg/mL (≈ 0.0729 µM), the MIC [3] was 0.004 to 0.008 µg/mL (≈ 0.00486 to 0.00972 µM) and the MIC [4] was 8 µg/mL (≈ 9.72 µM).

CN(C)[C@@H]1C(O)=C(C(N)=O)C(=O)[C@@]2(O)C(O)=C3C(=O)c4c(O)cccc4[C@@](C)(O)[C@H]3C[C@@H]12 [Tetracycline] was tested, and the MIC (S. aureus ATCC 29213) was 0.5 to 1 µg/mL (≈ 1.13 to 2.25 µM), the MIC (B. fragilis ATCC 25285) was 0.25 µg/mL (≈ 0.563 µM) and the MIC (S. aureus MRSA COL) was 2 µg/mL (≈ 4.5 µM). It also gave an MIC (E. coli ATCC 25922; E. coli ATCC 25922 (Reference)) of 2 µg/mL (≈ 4.5 µM), an MIC (E. coli ATCC 25922; [8]) of 1 to 2 µg/mL (≈ 2.25 to 4.5 µM) and an MIC (A. baumannii ATCC 19606) of 16 µg/mL (≈ 36 µM). The MIC (E. faecalis ATCC 29212) was 16 to 32 µg/mL (≈ 36 to 72 µM), the MIC [1] was 1 µg/mL (≈ 2.25 µM) and the MIC [4] was over 32 µg/mL. The MIC (E. coli Ec119c (EIEC)) was over 32 µg/mL, the MIC (E. coli Ec117c (EIEC)) was over 32 µg/mL and the MIC [5] was over 32 µg/mL. The MIC (E. coli Ec022c (EIEC)) was 2 µg/mL (≈ 4.5 µM), the MIC [6] was 2 µg/mL (≈ 4.5 µM) and the MIC (E. coli Ec027c (EIEC)) was over 32 µg/mL. For the same compound, the MIC (E. coli Ec118c (EIEC)) was 4 µg/mL (≈ 9 µM) and the MIC [7] was over 32 µg/mL.
